Source: ChEMBL document CHEMBL3232835, “Discovery of trifluoromethyl(pyrimidin-2-yl)azetidine-2-carboxamides as potent, orally bioavailable TGR5 (GPBAR1) agonists: structure-activity relationships, lead optimization, and chronic in vivo efficacy” (J Med Chem, 2014)
One block for each compound: values may come before it.

How the values were obtained:
[1] = AUC in mouse plasma at 20 mg/kg up to 5 hrs; type: ADME, organism-based; design: time < 5 hr, dose 20 mg/kg
in vitro [2] = conditions: human, Caco-2
in vitro [3] = conditions: human, Caco-2; remark: listed apart in the source
[4] = Cmax in mouse at 20 mg/kg, po; type: ADME, organism-based; design: dose 20 mg/kg, route oral; conditions: in vivo
[5] = AUC in mouse at 20 mg/kg, po; type: ADME, organism-based; design: dose 20 mg/kg, route oral; conditions: plasma
[6] = AUC in ob/ob mouse at 30 mg/kg, po qd measured on day 1; type: ADME, organism-based; design: dose 30 mg/kg, route oral; conditions: plasma
[7] = Volume of distribution at steady state in mouse at 5 mg/kg, iv; type: ADME, organism-based; design: dose 5 mg/kg, route intravenous; conditions: in vivo, read-out: Vdss
[8] = AUC in mouse at 5 mg/kg, iv; type: ADME, organism-based; design: dose 5 mg/kg, route intravenous; conditions: plasma
[9] = Cmax in mouse at 5 mg/kg, iv; type: ADME, organism-based; design: dose 5 mg/kg, route intravenous; conditions: in vivo
[10] = AUC in ob/ob mouse at 30 mg/kg, po qd measured on day 37; type: ADME, organism-based; design: dose 30 mg/kg, route oral; conditions: plasma
[11] = Oral bioavailability in mouse at 20 mg/kg; type: ADME, organism-based; conditions: in vivo
[12] = Cmax in ob/ob mouse at 30 mg/kg, po qd measured on day 1; type: ADME, organism-based; design: dose 30 mg/kg, route oral; conditions: in vivo
[13] = Lipophilicity, log D of the compound at pH 6.8; type: physicochemical; conditions: buffer
[14] = Cmax in ob/ob mouse at 30 mg/kg, po qd measured on day 37; type: ADME, organism-based; design: dose 30 mg/kg, route oral; conditions: in vivo

Compound: N#Cc1ccc(CCNC(=O)[C@@H]2CCN2c2cc(-c3ccc([C@H]4CC[C@H](C(=O)O)CC4)cc3)nc(C(F)(F)F)n2)cc1
Cmax [4]: 9.75 µM
AUC [5]: 53.8 µM·h
AUC [6]: 45.5 µM·h
Vd [7]: 1.31 L/kg
AUC [8]: 13.9 µM·h
Cmax [9]: 12 µM
AUC at 5 h [1]: 11.4 µM·h
AUC [10]: 37.5 µM·h
bioavailability [11]: 96.5%
Cmax [12]: 4.77 µM
logD [13]: 2.5
Cmax [14]: 5.17 µM

Compound: N#Cc1ccc(CCNC(=O)[C@@H]2CCCN(c3cc(N4CCC(C(=O)O)CC4)nc(C(F)(F)F)n3)C2)cc1
Papp A→B (in vitro [2]): 1.36 ×10⁻⁶ cm/s
AUC at 5 h [1]: 0.108 µM·h
Papp B→A (in vitro [3]): 13 ×10⁻⁶ cm/s

Compound: CC1(C(=O)O)CCN(c2cc(N3CCC[C@@H](C(=O)NCCc4ccc(C#N)cc4)C3)nc(C(F)(F)F)n2)CC1
Papp A→B (in vitro [2]): 1.02 ×10⁻⁶ cm/s
AUC at 5 h [1]: 1.05 µM·h
Papp B→A (in vitro [3]): 13.5 ×10⁻⁶ cm/s

Compound: CN1CCN(c2cc(N3CCC[C@@H](C(=O)NCCc4ccc(C#N)cc4)C3)nc(C(F)(F)F)n2)CC1
Cmax [4]: 1.07 µM
AUC [5]: 2.54 µM·h
Vd [7]: 1.6 L/kg
AUC [8]: 2.67 µM·h
Cmax [9]: 4.52 µM
bioavailability [11]: 24%

Compound: N#Cc1ccc(CCNC(=O)[C@@H]2CCN2c2cc(-c3ccc(-c4ccc(C(=O)O)cc4)cc3)nc(C(F)(F)F)n2)cc1
AUC at 5 h [1]: 13.9 µM·h

Continued, values first:

AUC at 5 h [1]: 7.53 µM·h
Compound: N#Cc1ccc(CCNC(=O)[C@@H]2CCN2c2cc(N3CCC(Oc4ccc(C(=O)O)cc4)CC3)nc(C(F)(F)F)n2)cc1

Papp A→B (in vitro [2]): 2.7 ×10⁻⁶ cm/s
AUC at 5 h [1]: 3.74 µM·h
Papp B→A (in vitro [3]): 12.9 ×10⁻⁶ cm/s
Compound: COc1cc(C2CCN(c3cc(N4CC[C@H]4C(=O)NCCc4ccc(C#N)cc4)nc(C(F)(F)F)n3)CC2)ccc1C(=O)O

AUC at 5 h [1]: 14.2 µM·h
Compound: N#Cc1ccc(CCNC(=O)[C@@H]2CCN2c2cc(N3CCC(Oc4ccc(CC(=O)O)cc4)CC3)nc(C(F)(F)F)n2)cc1

Papp A→B (in vitro [2]): 2.12 ×10⁻⁶ cm/s
AUC at 5 h [1]: 5.02 µM·h
Papp B→A (in vitro [3]): 6.4 ×10⁻⁶ cm/s
Compound: N#Cc1ccc(CCNC(=O)[C@@H]2CCCN(c3cc(N4CCC(Oc5ccc(CC(=O)O)cc5)CC4)nc(C(F)(F)F)n3)C2)cc1
